“Also recorded” adds a separate entry of the source. Read-outs that look alike come from different tables or passages of the source. Marks after values point to notes of the source that are not given here.
Key:
mGlu4 receptor [1] = details: cited from earlier work
[2] = system: untransfected cells of the T-REx 293 line; assay: forskolin-induced cAMP accumulation in untransfected (mock) cells, control experiment; format: cell-based; details: untransfected T-REx 293 cells
Protocol: 2. In vitro mGlu receptor selectivity profile
Figure S1. Activity of compounds 34, 37, 49, 52, 60 and 62 in forskolin -induced cAMP accumulation in untransfected cells of the T-REx 293 line. Similar to reference mGlu4 receptor […]
cAMP assay in the mock T-REx 293 cell line. […]
receptor used as reference drug) tested at a concentration of 10 μM in NAM mode (in the presence of EC80 concentration of L-Glu (30 μM)) by the cAMP accumulation assay in cells expressing mGlu4 receptor. […]

mGlu4 receptor [3] = biological target: T1, mGlu4 receptor (Homo sapiens, UniProt Q14833); assay: forskolin-stimulated cAMP assay, PAM mode (EC20 of L-Glu), T-REx 293 cells; format: cell-based; details: SEM where given; for EC50 / Emax: PAM mode; for EC50: EC20 (3 µM) L-Glu, T-REx 293 cells expressing human mGlu4 receptor; for Emax: T-REx-293, human mGlu4, read-out: GluMax; for Fold shift of L-Glu dose-response curve: in the presence of 10 µM of compound
T1 construct: mGlu4 receptor NM_000841, mGlu7 receptor NM_000844.2, and mGlu8 receptor NM_000845; expressed in transfected cells; host or cells: T-REx 293
T1 sequence (Q14833 33-912): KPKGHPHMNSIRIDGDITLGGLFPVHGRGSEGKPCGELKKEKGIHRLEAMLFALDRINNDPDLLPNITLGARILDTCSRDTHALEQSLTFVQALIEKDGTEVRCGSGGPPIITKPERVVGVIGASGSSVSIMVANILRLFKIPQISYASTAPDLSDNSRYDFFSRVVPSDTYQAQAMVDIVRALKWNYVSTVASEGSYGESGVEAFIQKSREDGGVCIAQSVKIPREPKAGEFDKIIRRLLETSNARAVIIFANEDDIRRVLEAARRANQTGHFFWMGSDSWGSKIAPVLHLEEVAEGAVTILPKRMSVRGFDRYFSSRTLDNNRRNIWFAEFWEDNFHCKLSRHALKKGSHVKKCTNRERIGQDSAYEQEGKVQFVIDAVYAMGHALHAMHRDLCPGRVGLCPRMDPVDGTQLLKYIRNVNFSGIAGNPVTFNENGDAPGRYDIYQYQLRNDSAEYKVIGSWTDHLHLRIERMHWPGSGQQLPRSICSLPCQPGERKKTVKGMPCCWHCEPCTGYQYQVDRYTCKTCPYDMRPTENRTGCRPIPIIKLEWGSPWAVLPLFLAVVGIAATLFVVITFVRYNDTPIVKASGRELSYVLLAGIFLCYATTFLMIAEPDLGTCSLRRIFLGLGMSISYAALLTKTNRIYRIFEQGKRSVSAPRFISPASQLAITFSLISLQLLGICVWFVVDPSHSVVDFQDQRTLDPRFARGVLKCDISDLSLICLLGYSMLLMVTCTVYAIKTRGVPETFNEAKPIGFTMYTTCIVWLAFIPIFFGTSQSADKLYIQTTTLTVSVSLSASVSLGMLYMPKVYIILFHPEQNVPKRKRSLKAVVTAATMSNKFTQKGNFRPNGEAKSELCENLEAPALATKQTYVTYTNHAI
Protocol: The activity of the compounds was assessed in vitro in a forskolin-stimulated cAMP assay in T-REx 293 cells expressing human mGlu4 receptors in the presence of an EC20 concentration of L-Glu; a PAM was identified if it potentiated cAMP inhibition by the Gi/o-dependent pathway of mGlu4 receptor activation; i.e. if it was able to produce a leftward shift in the potency of the endogenous agonist.
(§1) Determination of the intracellular cAMP through a homogeneous time-resolved fluorescence (HTRF) cAMP dynamic 2 kit from Cisbio (Codolet, France) was described previously by Chruścicka et al.[91]. Briefly, cells were grown in DMEM supplemented with 10% foetal bovine serum (FBS) (tetracycline free). Forty-eight hours before the experiments, mGlu receptor expression was induced by the addition of 0.75 µg/mL tetracycline. Twenty hours before the experiment, FBS and L-Glu were removed from the medium. Thereafter, the cells were scraped and centrifuged. A cell pellet was suspended in Hanks-HEPES (130 mM NaCl, 5.4 mM KCl, 1.8 mM CaCl2, 0.8 mM MgSO4, 0.9 mM NaH2PO4, 20 mM HEPES, and 3.25 mM glucose; pH 7.4). Then, the cell suspension was incubated in the presence of 10 µM forskolin (or 3 µM forskolin for mGlu7 receptor), the agonist L-glutamate and a compound for 5 min. Next, 10 µl of the cell suspension was mixed with 5 µl of cAMP-d2 conjugate and 5 µL of anti-cAMP cryptate conjugate. After 1 h of incubation at rt, the fluorescence at 620 nm and 665 nm was read (Tecan Infinite M1000). The results were calculated as the 665 nm/620 nm ratio multiplied by 10^4. Each sample was prepared in triplicate.
Statistical calculations were performed using GraphPad Prism 5.04 software (GraphPad Software, La Jolla, CA, USA). The curves were fitted to a 3-parametric logistic equation, allowing for the determination of EC50 values. Each data point was analysed in triplicate.

Albino Swiss mice [4] = assay: DOI-induced head twitch test (HTR); format: in vivo; details: over the doses 2.5, 5 and 10 mg/kg i.p.; DOI 2.5 mg/kg i.p.
Protocol: (§2) The compounds were dissolved in a small amount of 100% EtOH and then adjusted with 20% cyclodextrin, and the pH was adjusted to 6.0. The investigated compounds were administered intraperitoneally (i.p.) 60 min before the behavioural test. Control drugs i.e. diazepam, clozapine and imipramine (Sigma–Aldrich, St. Louis, USA), were administered i.p. 60 min before the behavioural test. Cyclodextrin (20%) was used as a vehicle. All solutions were prepared immediately prior to the experiments and were administered at a constant volume of 10 ml/kg.
The experiments were performed according to the procedure described in our previous studies[75]^,[80]. Briefly, to habituate mice to the experimental environment, each animal was transferred to a 12 cm (diameter) × 20 cm (height) glass cage lined with sawdust 30 min before treatment. Test compounds were administered intraperitoneally (i.p.) at doses of 2.5, 5, and 10 mg/kg body weight 60 min before the test was performed. The head twitch response (HTR) in mice was induced by DOI (2.5 mg/kg, i.p.). Immediately after treatment, the number of head twitches was counted during a 20 min session. Haloperidol and clozapine were used as the reference compounds at active doses of 0.2 and 5 mg/kg, respectively.

mGlu7 receptor = biological target: T2, mGlu7 receptor (Homo sapiens, UniProt Q14831); assay: cAMP accumulation assay in cells expressing mGlu7 receptor (agonist, PAM, NAM modes); format: cell-based; details: 10 µM, agonist mode
T2 construct: mGlu4 receptor NM_000841, mGlu7 receptor NM_000844.2, and mGlu8 receptor NM_000845; expressed in transfected cells; host or cells: T-REx 293
T2 sequence (Q14831 35-915): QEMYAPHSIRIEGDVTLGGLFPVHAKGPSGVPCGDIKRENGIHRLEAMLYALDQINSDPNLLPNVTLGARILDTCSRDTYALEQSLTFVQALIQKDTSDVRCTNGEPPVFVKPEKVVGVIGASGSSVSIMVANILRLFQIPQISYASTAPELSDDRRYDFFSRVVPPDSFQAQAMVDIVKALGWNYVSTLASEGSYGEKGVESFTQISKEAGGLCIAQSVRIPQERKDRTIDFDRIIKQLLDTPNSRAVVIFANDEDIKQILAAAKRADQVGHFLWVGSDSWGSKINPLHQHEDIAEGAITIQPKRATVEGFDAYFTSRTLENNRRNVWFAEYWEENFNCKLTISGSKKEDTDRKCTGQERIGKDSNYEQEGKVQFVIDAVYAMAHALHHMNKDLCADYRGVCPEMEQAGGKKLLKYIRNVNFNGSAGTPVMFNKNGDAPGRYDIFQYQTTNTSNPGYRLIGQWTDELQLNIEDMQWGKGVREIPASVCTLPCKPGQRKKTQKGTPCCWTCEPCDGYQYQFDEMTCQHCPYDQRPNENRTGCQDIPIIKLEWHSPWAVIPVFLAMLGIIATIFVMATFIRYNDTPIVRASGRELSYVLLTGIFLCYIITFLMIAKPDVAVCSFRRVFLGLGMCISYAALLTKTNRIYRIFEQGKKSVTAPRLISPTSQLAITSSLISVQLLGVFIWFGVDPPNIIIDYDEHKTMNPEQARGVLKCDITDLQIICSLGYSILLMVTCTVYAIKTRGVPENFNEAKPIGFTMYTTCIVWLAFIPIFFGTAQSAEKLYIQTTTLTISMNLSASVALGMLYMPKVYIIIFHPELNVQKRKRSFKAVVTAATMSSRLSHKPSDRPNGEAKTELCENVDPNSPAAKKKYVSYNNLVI
Protocol: (§3) The compounds were tested in the agonist, PAM (in the presence of EC20 concentration of L-Glu) or NAM (with EC80 of L-Glu) modes of forskolin-induced cAMP using T-REx 293 cells expressing the protein of a given receptor.
(§4) Figure 4. The activity of compounds 34, 37, 49, 52, 60, 62 and reference drugs MMPIP (a selective NAM of mGlu7 receptor) and AZ12216052 (a PAM of mGlu8 receptor) tested at a concentration of 10 μM in the cAMP accumulation assay in cells expressing mGlu7 and mGlu8 receptors. The percent activity refers to two extreme FRET signals: 0% corresponds to forskolin treatment alone and 100% to maximal FRET signal for the control cells (without any treatment). A/D – agonistic activity; B/E – PAM activity measured in the presence of L-Glu at the EC20 concentration (0.1 mM for mGlu7 receptor, and 1 μM for mGlu8 receptor); C/F – NAM activity measured in the presence of L-Glu at the EC80 concentration (1 mM for mGlu7 receptor, 10 μM for Glu8 receptor).
as §1

mGlu8 receptor = biological target: T3, mGlu8 receptor (Homo sapiens, UniProt O00222); assay: cAMP accumulation assay in cells expressing mGlu8 receptor (agonist, PAM, NAM modes); format: cell-based; details: 10 µM, agonist mode
T3 construct: mGlu4 receptor NM_000841, mGlu7 receptor NM_000844.2, and mGlu8 receptor NM_000845; expressed in transfected cells; host or cells: T-REx 293
T3 sequence (O00222 34-908): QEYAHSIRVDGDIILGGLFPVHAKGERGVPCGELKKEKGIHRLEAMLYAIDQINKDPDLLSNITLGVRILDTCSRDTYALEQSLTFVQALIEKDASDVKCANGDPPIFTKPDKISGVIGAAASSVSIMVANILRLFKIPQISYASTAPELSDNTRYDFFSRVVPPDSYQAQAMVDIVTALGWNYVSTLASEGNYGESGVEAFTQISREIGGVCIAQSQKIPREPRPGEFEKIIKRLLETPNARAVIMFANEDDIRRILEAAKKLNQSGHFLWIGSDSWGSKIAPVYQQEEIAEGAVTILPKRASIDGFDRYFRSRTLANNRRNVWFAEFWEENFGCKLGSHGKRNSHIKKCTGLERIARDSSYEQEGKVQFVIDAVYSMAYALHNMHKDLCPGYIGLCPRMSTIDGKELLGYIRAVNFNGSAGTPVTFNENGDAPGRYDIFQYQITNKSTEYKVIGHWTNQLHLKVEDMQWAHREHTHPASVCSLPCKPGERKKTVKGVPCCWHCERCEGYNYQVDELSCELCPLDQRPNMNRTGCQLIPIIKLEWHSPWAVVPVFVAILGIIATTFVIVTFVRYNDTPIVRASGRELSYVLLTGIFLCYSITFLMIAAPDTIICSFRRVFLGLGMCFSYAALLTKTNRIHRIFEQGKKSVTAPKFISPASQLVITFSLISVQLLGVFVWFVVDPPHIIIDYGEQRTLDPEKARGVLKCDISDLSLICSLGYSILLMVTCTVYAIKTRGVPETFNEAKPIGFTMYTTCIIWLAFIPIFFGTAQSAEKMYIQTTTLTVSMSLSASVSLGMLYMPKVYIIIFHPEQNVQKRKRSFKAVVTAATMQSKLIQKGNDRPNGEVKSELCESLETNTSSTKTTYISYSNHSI
Protocol: as §3, §4, §1

[5] = system: Salmonella typhimurium strains TA98 and TA100; format: cell-based; details: TA98 and TA100, with and without S9, ≤ 30 µM
Protocol: The primary assessment of the cardiotoxic risk and mutagenic potential of the six selected 1,2,4-oxadiazole derivatives was performed in the hERG channel assay and the mini-AMES test, respectively. The mutagenicity potential was determined in strains TA98 (frameshift mutation) and TA100 (base-pair substitution) of Salmonella typhimurium in the presence and absence of an exogenous metabolic activation system (rat liver S9 fraction) containing mammalian microsomal enzymes.
The Ames microplate fluctuation protocol (MPF) assay was performed with Salmonella typhimurium strains TA98 and TA100, […]. The bacterial strain as well as the exposure and indicator medium were obtained from Xenometrix AG (Allschwil, Switzerland). […] After the addition of indicator medium, each well of the 24-well plate was aliquoted into 48 wells of a 384-well plate.
The occurrence of reversion events to histidine prototrophy was observed as the growth of bacteria in the indicator medium without histidine after 72 h of incubation at 37 °C. Bacterial growth in 384-well plates was visualised by a colour change of medium from violet to yellow due to the addition of pH indicator dye. The absorbance was measured with a microplate reader (EnSpire) at 420 nm. The reference mutagen NQNO (0.5 mM) was used as a positive control in the experiments. The medium control baseline (MCB) was calculated, as derived from the mean number of revertants in the medium control plus one standard deviation.
AMES test was conducted with two Salmonella typhimurium strains TA98 and TA100 in the presence or absence of liver homogenate S9 to simulate the metabolic conversions of tested compounds with liver enzymes. The AMES MPF 98/100 assay from Xenometrix was performed as described by the supplier. Data were analysed with the AMES MPF calculation […]
(also on this page, place not known: TA10 cal culation TA98 - S9 Revertants TA98 + S9 Revertants - S9 Revertants TA100 + S9 Revertants TA98 - S9 Revertants TA98 + S9 Revertants TA100 - S9 Revertants 0 TA100 + S9 Revertants)

Albino Swiss mice [6] = assay: modified stress-induced hyperthermia (SIH) in singly housed mice; format: in vivo; details: over the doses 5, 10 and 20 mg/kg i.p.
Protocol: as §2
The procedure for modified stress-induced hyperthermia was adapted from Van der Heyden[93] and based on the procedure introduced by Borsini[94]. Each experimental group consisted of eight to ten animals. The animals were housed individually in a 26 × 21 × 14 cm Macolon cage 24 h before testing. For this assay, the body temperature was measured for each mouse at t = 0 min (T1) and t = +15 min (T2). Albino Swiss mice were placed into a new cage immediately following T1, with the difference in temperature (T2−T1) used as the measure of stress-induced hyperthermia. […] A comparison between T1 in vehicle-treated mice and those administered the test compound was used to determine whether the agent affects body temperature alone. Diazepam (5 mg/kg) was used as the positive control. The rectal temperature was measured to the nearest 0.1 °C with a Physitemp Theralert thermometer, TH-5, Clifton NJ, USA, with the temperature sensor for mice, Type T, Copper-Constantan Thermocouple, Braintree Scientific Inc. The lubricated thermistor probe (2 mm diameter) was inserted 20 mm into the rectum. The mouse was held at the base of the tail during this determination, and the thermistor probe was left in place until a constant reading was obtained for 15 s. The effects of the investigated compounds on the SIH response were investigated after administration of the compounds at doses of 5, 10 and 20 mg/kg.

mGlu4 receptor [7] = biological target: T1, mGlu4 receptor; assay: forskolin-induced cAMP assay, agonist mode, T-REx 293 cells; format: cell-based
Protocol: as §3, §1

DOI-induced HTR = system: DOI-induced HTR; parameters: method as in PMID 24947466; details: medium dose of 3, 10 and 30 mg/kg; cited from earlier work

## O=C(Nc1ccccn1)C12CC1C(=NO)c1ccccc1O2 (centres unmarked) [VU0359516]
mGlu4 receptor [1]; PAM, read-out: EC50 (mGlu4 receptor PAM)
  EC50: 0.38 µM

## O=C(Nc1cc(Cl)cc(Cl)c1)[C@H]1CCCC[C@H]1C(=O)O [VU0155041]
[2]
  effect on forskolin-induced cAMP accumulation in mock cells: no effects
mGlu4 receptor [1]; reference ago-PAM, read-out: agonist activity at mGlu4 receptor, EC50
  EC50: 2.5 µM

## Cc1cc(NC(=O)c2ccccn2)ccc1-c1noc(-c2ccccc2Cl)n1 [Compound 62, N-(4-(5-(2-chlorophenyl)-1,2,4-oxadiazol-3-yl)-3-methylphenyl)picolinamide]
mGlu4 receptor [3]
  EC50: 0.308 µM
  Emax: 135%
  Fold shift of L-Glu dose-response curve: 3.3 (0.34)^d
Albino Swiss mice [4]
  effect on DOI-induced HTR: significant anxiolytic- and antipsychotic-like properties; also recorded: at all doses significantly reduced; also recorded: Clear dose-response effects; also recorded: clear dose-dependent response and high potency; also recorded: comparable to that of clozapine
mGlu7 receptor
  agonistic activity at mGlu7 receptor: lacked agonistic action
mGlu8 receptor
  agonistic activity at mGlu8 receptor: lacked agonistic action
[5]
  mutagenic activity (mini-AMES): no mutagenic potential
Albino Swiss mice [6]
  effect on SIH response: significant anxiolytic- and antipsychotic-like properties; also recorded: significantly reduced SIH responses at all three doses; also recorded: at all doses significantly reduced the SIH response
mGlu4 receptor [7]
  agonistic action at mGlu4 receptor: lacked agonistic action

## O/N=c1\cc(-c2cc3sccc3cn2)oc2ccc(CCCN3CCOCC3)cc12 [PXT002331]
mGlu4 receptor [1]; PAM, read-out: mGlu4 PAM potency EC50
  EC50: 0.046 µM

## Cc1ccnc(Nc2nc(-c3cn[nH]c3)c(C)s2)n1 [ADX88178]
DOI-induced HTR
  reduction of DOI-induced HTR: ≤ 30%

## FC(F)(F)c1nccc2cc(Nc3n[nH]c4ncccc34)ccc12 [Valiglurax]
mGlu4 receptor [1]; PAM, read-out: mGlu4 receptor PAM potency EC50
  EC50: 0.0646 µM

## O=C(Nc1ccc(-c2noc(-c3ccccc3)n2)c(Cl)c1)c1ccccn1 [Compound 49]
mGlu4 receptor [3]
  EC50: 0.352 µM
  Emax: 123%
  Fold shift of L-Glu dose-response curve: 6.77 (0.53)^d
Albino Swiss mice [4]
  effect on DOI-induced HTR: not effective; also recorded: no influence
mGlu7 receptor
  agonistic activity at mGlu7 receptor: direct agonistic activity
[5]
  mutagenic activity (mini-AMES): no mutagenic potential
Albino Swiss mice [6]
  effect on SIH response: not effective

— publication PMC8667925, “New 1,2,4-oxadiazole derivatives with positive mGlu4 receptor modulation activity and antipsychotic-like properties” (Journal of Enzyme Inhibition and Medicinal Chemistry, 2021)
